# According to patent publication USRE36744E, “Nasal administration of benzodiazepine hypnotics” (Ribogene, Inc., priority 1994, dated 2000):
# Several values for one entry are separate records, joined by “and”; a condition that tells them apart may be missing. Identical values can stand only once.
# Legend:
# [1] = test system: Wistar rats; assay: Oral versus nasal hypnotic efficacy in rats (duration of sleeping time, loss and reappearance of the righting reflex); assay type: in vivo
# Protocol: A variety of hypnotics including chloral hydrate, sodium pentobarbital and flurazepam were administered to Wistar rats to compare the efficacy of oral and nasal administration.
# Oral Administration Studies: The subjects were fasted for approximately 18 hours; water was available ab libitum. Aqueous solutions of chloral hydrate obtained from Sigma Chemical Co., Ltd. and sodium pentobarbital were separately administered to groups of the subject rats using a constant dose volume of […]. Different dosage levels were obtained by varying the aqueous concentrations of therapeutic drug to identify an effective amount of hypnotic.
# The animals were then placed in a constant temperature environment of 32° C. The duration of sleeping time (measured by the loss and reappearance of the righting reflex) was recorded for each animal. The results within each group were then averaged.
# Nasal Administration Studies: The methodology of the oral studies was repeated with substitution of nasal administration of aqueous solutions through a fine catheter inserted into the nostril. The therapeutic drug was dosed at a constant volume of 50 μl which would deliver an amount of the hypnotic which would be orally effective.
# [2] = Comparative oral versus nasal pharmacokinetics of flurazepam in dogs (plasma, GC assay); assay type: in vivo, beagle dogs
# Protocol: The efficacy of oral versus nasal administration was examined using the methodology of Example 2.
# Oral Administration Studies: Fifteen mg of flurazepam HCl solution was given to each dog with 50 ml of water. […] The plasma samples were stored frozen until GC assay for flurazepam.
# Nasal Administration Studies: One hundred and twenty milligrams of flurazepam HCl powder was dissolved in 4 ml of distilled water. […] Air bubbles generated during mixing were eliminated by centrifugation. The pH of the solution was 1.82.
# Flurazepam solution was sprayed into both nostrils of the dogs. The dose given to the dogs was 14.5, 12.4, 12.1 and 12.5 mg as flurazepam HCl. Blood sampling times were same as in the oral study. The plasma samples were frozen until GC assay for flurazepam.
# Five ml of hexane was then added and the mixture was vortexed together for one min. and centrifuged for 4 minutes. Four ml of the upper organic layer was then pipetted. Fifty μl of hexane/isoamyl alcohol was used for reconstitution.
# Flurazepam in plasma was assayed by a Hewlett Packard model 5830A GC-EC. […] The temperatures for column, injector port and detector were 250°, 310° and 310° C., respectively. The flow rate for argon/methane (95:5) gas was 33 ml/min.
# [3] = Comparative oral versus nasal pharmacokinetics of midazolam in dogs (plasma, GC assay); assay type: in vivo, beagle dogs; conditions: for half-life / Tmax / Cmax: dog, plasma
# Protocol: Air bubbles generated during mixing were removed by centrifugation.
# The dose given to each dog was 7.85, 7.89, 7.22, 5.61 mg free base.
# GC Assay--for extraction, 0.5 ml of plasma, 100 μl of internal standard (100 ng/ml flurazepam in methanol) and 0.5 ml of 2N sodium hydroxide were vortexed for 5 seconds. Five ml of hexane was then added and the mixture was vortexed for one min. and centrifuges for 4 minutes. […] Fifty μl of hexane/isoamyl alcohol (80:20) was used for reconstitution.
# The temperatures for column, injector port and detector were 250°, 310° and 310° C., respectively. The flow rate for argon/methane (95:5) gas was 33 ml/min.
# [4] = Comparative oral versus nasal pharmacokinetics of triazolam in beagle dogs (plasma, GC assay); conditions: for Cmax / half-life / Tmax: dog, plasma
# Protocol: In two comparative studies separated in time by over one week; four healthy male, 2-3 year old beagle dogs received oral and nasal doses of triazolam. They were fasted overnight before each study and food was withheld until the end of the experiment. They were restrained in a dog sling during the studies while blood (3 ml) was withdrawn from each dog through a cannula inserted into the cephalic vein.
# Oral Administration Studies: Two 0.5 mg triazolam tablets were given to each dog with 50 ml of water. Blood samples were taken from the cephalic vein at 0 min before administration and 15, 30, 45, 60, 120, 180, 240, 300, 360 and 420 min after administration. The plasma samples were stored frozen until gas chromotographic assay for triazolam.
# Nasal Administration Studies: Thirty milligrams of triazolam powder was dissolved in 5 ml of PEG 400 warmed at 55°-60° C. After the solution was cooled to room temperature, an equal volume of 1% methocel J5MS (Dow Chemical Company, Midland, Mich.) solution was mixed with the triazolam solution. Air bubbles generated during mixing were removed by centrifugation. The final concentration of triazolam in the solvent mixture was assayed by an HPLC method. An Altex C18, 4.6×150 mm column was used. The mobile phase contained 60% of 0.05 M KH2 PO4 (pH=6.0, T. J. Baker) and 40% acetonitrile (Fisher Scientific). Flow rate of mobile phase was 1 ml/min. The wavelength used was 221 nm.
# Using a metered dose inhaler, triazolam solution was sprayed into both nostrils of the dogs. The dose administered was determined by weighting the bottle containing the triazolam solution before and after spraying. […] Blood sampling times were the same as in the oral study. The plasma samples were frozen until GC assay for triazolam.
# GC Assay: To extract triazolam, 0.5 ml of plasma, 50 μl of internal standard (55 ng/ml clonazepam in methanol) and 3 ml of hexane/methylene chloride (4:3) were vortexed together for 15 seconds and centrifuged for 4 minutes. The bottom aqueous layer was frozen by dry ice/acetone and the upper organic layer was transferred to another tube containing 1 ml of distilled water. The mixture was vortexed for 15 seconds and centrifuged for 4 minutes. Two ml of the upper organic layer was then pipetted into another tube and evaporated to dryness in an vortex-evaporator. […] of toluene was used for reconstitution.
# The amount of triazolam in 3 ml of extract plasma was assayed by an HP model 5830A GC-EC. The glass column used was a 6'×1/4" 2 mm on column w/o liner 6" coil (Anspec) with 3% OV-17 […] and detector were 275°, 310° and 350° C., respectively. The flow rate for argon/methane (95:5) gas 42 ml/min.
# [5] = dogs, nasal vs oral, dose-normalized
# [6] = nasal spray, 12.1-14.5 mg as HCl, individual dog
# [7] = nasal spray, 5.61-7.89 mg free base, individual dog
# [8] = oral, 5 mg free base equivalent, individual dog
compound,measurement,setting,value
CCN(CC)CCN1C(=O)CN=C(c2ccccc2F)c2cc(Cl)ccc21 [flurazepam],Hypnotic efficacy by oral administration,[1],the rats proved resistant
same,Tmax,"[2]; dog, plasma, nasal spray, 12.1-14.5 mg as HCl, individual dog, read-out: TMAX NASAL (converted)",15 min
same,Cmax,"[2]; dog, plasma, nasal spray, 12.1-14.5 mg as HCl, mean of four dogs, read-out: CMAX NASAL (MEAN)",73.3 ng/mL
same,half-life,"[2]; dog, plasma, nasal spray, 12.1-14.5 mg as HCl, mean of four dogs, read-out: T1/2 NASAL (MEAN)",168 min
same,Tmax,"[2]; dog, plasma, nasal spray, 12.1-14.5 mg as HCl, mean of four dogs, read-out: TMAX NASAL (MEAN) (converted)",15 min
same,Cmax,"[2]; dog, plasma, po, 15 mg, oral, 15 mg flurazepam HCl, mean of four dogs, head marked *, read-out: CMAX PO (MEAN)",4.97 ng/mL
same,Tmax,"[2]; dog, plasma, po, 15 mg, oral, 15 mg flurazepam HCl, mean of four dogs, read-out: TMAX PO (MEAN) (converted)",26.3 min
same,Tmax after nasal administration relative to oral route,"[2]; dogs, nasal vs oral",half that of oral route
same,Plasma levels after nasal administration compared with oral,"[2]; dogs, nasal vs oral, dose-corrected, FIG. 3",consistently higher
same,Mean increase in AUC after nasal administration,[2]; [5],51 fold
same,Cmax after oral administration lower than that of nasal route,"[2]; dogs, oral vs nasal",15 times
same,AUC NASAL,"[2]; nasal spray, 12.1-14.5 mg as HCl, dose-normalized, individual dog",922.3 ngmin/ml-mg and 384.9 ngmin/ml-mg and 287.4 ngmin/ml-mg and 314.9 ngmin/ml-mg
same,AUC NASAL (MEAN),"[2]; nasal spray, 12.1-14.5 mg as HCl, dose-normalized, mean of four dogs",477.4 ngmin/ml-mg
same,CMAX NASAL,[2]; [6],161.5 ng/mL and 41.1 ng/mL and 31.5 ng/mL and 59.0 ng/mL
same,T1/2 NASAL,[2]; [6],214.7 min and 190.8 min and 163.3 min and 102.6 min
same,AUC PO,"[2]; oral, 15 mg flurazepam HCl, dose-normalized, estimated up to last data point, individual dog",8.60 ngmin/ml-mg and 19.30 ngmin/ml-mg and 4.81 ngmin/ml-mg and 20.00 ngmin/ml-mg
same,AUC PO (MEAN),"[2]; oral, 15 mg flurazepam HCl, dose-normalized, estimated up to last data point, mean of four dogs",13.20 ngmin/ml-mg
same,TMAX PO,"[2]; oral, 15 mg flurazepam HCl, individual dog",45.0 min and 30.0 min
Cc1ncc2n1-c1ccc(Cl)cc1C(c1ccccc1F)=NC2 [midazolam],half-life,"[3]; nasal spray, 5.61-7.89 mg free base, individual dog, read-out: T1/2 NASAL",36.1 min
same,Tmax,"[3]; nasal spray, 5.61-7.89 mg free base, individual dog, read-out: TMAX NASAL (converted)",15 min
same,Cmax,"[3]; nasal spray, 5.61-7.89 mg free base, mean of four dogs, read-out: CMAX NASAL (MEAN)",101 ng/mL
same,half-life,"[3]; nasal spray, 5.61-7.89 mg free base, mean of four dogs, read-out: T1/2 NASAL (MEAN)",33.3 min
same,Tmax,"[3]; nasal spray, 5.61-7.89 mg free base, mean of four dogs, read-out: TMAX NASAL (MEAN) (converted)",15 min
same,Cmax,"[3]; po, 5 mg, oral, 5 mg free base equivalent, mean of four dogs, head marked *, read-out: CMAX PO (MEAN)",24.5 ng/mL
same,half-life,"[3]; po, 5 mg, oral, 5 mg free base equivalent, mean of four dogs, read-out: T1/2 PO (MEAN)",33.2 min
same,Tmax,"[3]; po, 5 mg, oral, 5 mg free base equivalent, mean of four dogs, read-out: TMAX PO (MEAN) (converted)",30 min
same,Mean half-life in both routes of administration,"[3]; dogs, nasal vs oral",about the same
same,Tmax after nasal administration earlier than after oral administration,"[3]; dogs, nasal vs oral",2 fold
same,Plasma levels after nasal administration compared with oral,"[3]; dogs, nasal vs oral, dose-corrected, FIG. 2",consistently higher
same,Mean increase in AUC after nasal administration,[3]; [5],2.5 fold
same,Cmax after oral administration lower than that of nasal route,"[3]; dogs, oral vs nasal",4 times
same,AUC NASAL,"[3]; nasal spray, 5.61-7.89 mg free base, dose-normalized, individual dog",842.9 ngmin/ml-mg and 520.8 ngmin/ml-mg and 338.5 ngmin/ml-mg and 650.8 ngmin/ml-mg
same,AUC NASAL (MEAN),"[3]; nasal spray, 5.61-7.89 mg free base, dose-normalized, mean of four dogs",588.3 ngmin/ml-mg
same,CMAX NASAL,[3]; [7],159.0 ng/mL and 111.2 ng/mL and 47.1 ng/mL and 87.9 ng/mL
same,T1/2 NASAL,[3]; [7],26.8 min and 36.5 min and 33.8 min
same,AUC PO,"[3]; oral, 5 mg free base equivalent, dose-normalized, individual dog",235.6 ngmin/ml-mg and 242.0 ngmin/ml-mg and 157.8 ngmin/ml-mg and 333.2 ngmin/ml-mg
same,AUC PO (MEAN),"[3]; oral, 5 mg free base equivalent, dose-normalized, mean of four dogs",242.1 ngmin/ml-mg
same,T1/2 PO,[3]; [8],43.5 min and 50.6 min and 19.4 min and 19.3 min
same,TMAX PO,[3]; [8],15.0 min and 45.0 min and 30.0 min
Cc1nnc2n1-c1ccc(Cl)cc1C(c1ccccc1Cl)=NC2 [triazolam],Cmax,"[4]; CMAX NASAL (MEAN), nasal spray, 0.9343-1.532 mg, mean of four dogs, ng/ml",27.6 ng/mL
same,Cmax,"[4]; CMAX NASAL, nasal spray, 0.9343-1.532 mg, individual dog, ng/ml",27.2 ng/mL
same,half-life,"[4]; T1/2 NASAL (MEAN), nasal spray, 0.9343-1.532 mg, mean of four dogs",57.3 min
same,half-life,"[4]; T1/2 NASAL, nasal spray, 0.9343-1.532 mg, individual dog",62.7 min
same,Tmax,"[4]; TMAX NASAL (MEAN), nasal spray, 0.9343-1.532 mg, mean of four dogs, (min)",18.8 min
same,Tmax,"[4]; TMAX NASAL, nasal spray, 0.9343-1.532 mg, individual dog, (min)",15 min
same,Tmax,"[4]; Time of peak mean plasma concentration, nasal, dogs, mean",~18.8 min
same,Cmax,"[4]; po, 1 mg, CMAX PO (MEAN), two 0.5 mg tablets, mean of four dogs, ng/ml",7 ng/mL
same,Cmax,"[4]; po, 1 mg, CMAX PO, two 0.5 mg tablets, individual dog, ng/ml",7.6 ng/mL
same,half-life,"[4]; po, 1 mg, T1/2 PO (MEAN), two 0.5 mg tablets, mean of four dogs",67.5 min
same,Tmax,"[4]; po, 1 mg, TMAX PO (MEAN), two 0.5 mg tablets, mean of four dogs, (min)",48.8 min
same,Tmax,"[4]; po, 1 mg, TMAX PO, two 0.5 mg tablets, individual dog, (min)",45 min
same,Tmax,"[4]; po, 1 mg, Time of peak mean plasma concentration, dogs, mean",~48.8 min
same,Nasal absorption,"[4]; dogs, nasal",significant nasal absorption
same,Mean AUC after nasal administration larger than that of oral route,"[4]; dogs, nasal vs oral",2.4 fold
same,Mean half-life in both routes of administration,"[4]; dogs, nasal vs oral",about the same
same,Plasma levels after nasal administration compared with oral,"[4]; dogs, nasal vs oral, dose-corrected, FIG. 1",consistently higher
same,Variability of oral plasma concentration-time curve compared with nasal,"[4]; dogs, oral vs nasal, FIG. 1, attributed to gastric emptying of the tablets",more variability
same,TMAX NASAL,"[4]; nasal spray, 0.9343-1.532 mg, individual dog, (min)",30.0
same,CMAX NASAL,"[4]; nasal spray, 0.9343-1.532 mg, individual dog, ng/ml",31.20 and 25.20 and 26.60
same,TMAX PO,"[4]; oral, two 0.5 mg tablets, individual dog, (min)",60.0 and 30.0
same,CMAX PO,"[4]; oral, two 0.5 mg tablets, individual dog, ng/ml",6.10 and 5.50 and 8.70
